PubChem BioAssay AID1053147 (Broad Institute, 2014)

Test system: HepG2 BODIPY-LDL uptake, imaging, fold induction
Test: LDL uptake enhancers in HepG2, dose response, imaging, BODIPY-LDL, cherry-pick, set 2 (AID 1053147)
Conditions: stronger effect = higher value

## CN1C(=O)c2cc(NC(=O)c3ccc(C(F)(F)F)cc3)ccc2OC[C@@H]2O[C@@H](CC(=O)NC3Cc4ccccc4C3)CC[C@@H]21
  fold induction x10: 25

## CN1C(=O)c2cc(NC(=O)c3ccc(C(F)(F)F)cc3)ccc2OC[C@@H]2O[C@H](CC(=O)NC3Cc4ccccc4C3)CC[C@@H]21
  fold induction x10: 10
